Where two headings read alike, the source gives them in different places.
Legend:
[1] = target: T1, human OAT1 (Homo sapiens, UniProt Q4U2R8); assay: cell-based
T1 sequence (Q4U2R8 1-563): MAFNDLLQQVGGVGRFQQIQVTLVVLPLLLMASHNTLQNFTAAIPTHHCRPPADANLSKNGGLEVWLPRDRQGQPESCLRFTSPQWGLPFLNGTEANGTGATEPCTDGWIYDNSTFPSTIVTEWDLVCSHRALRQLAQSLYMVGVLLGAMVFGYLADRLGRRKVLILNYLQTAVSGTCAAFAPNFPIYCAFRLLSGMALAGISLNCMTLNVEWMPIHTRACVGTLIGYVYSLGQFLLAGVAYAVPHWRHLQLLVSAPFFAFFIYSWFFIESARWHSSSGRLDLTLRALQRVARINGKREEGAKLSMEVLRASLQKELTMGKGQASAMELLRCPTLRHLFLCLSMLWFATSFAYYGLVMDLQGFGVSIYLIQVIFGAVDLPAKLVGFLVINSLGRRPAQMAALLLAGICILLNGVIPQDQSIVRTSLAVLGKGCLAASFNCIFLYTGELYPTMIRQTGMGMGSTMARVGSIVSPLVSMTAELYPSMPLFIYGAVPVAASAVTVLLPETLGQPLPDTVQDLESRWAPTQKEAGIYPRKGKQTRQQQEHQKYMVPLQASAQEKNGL

[2] = target: T1, human OAT1; details: for Uptake (Average ± SD), OAT1: OAT1-expressing HEK293 cells; for Uptake (Average ± SD), Control: control HEK293 cells (vector only); for % control: relative to solvent control

NS(=O)(=O)c1cc(Cl)c(Cl)c(S(N)(=O)=O)c1 [Dichlorphenamide, 4,5-dichloro-1,3-benzenedisulfonamide]
IC50 [1]: 17.7 µM
Uptake (Average ± SD), OAT1 ([2]; inhibitor 1 μM): 6.99 pmol/mg protein
Uptake (Average ± SD), OAT1 ([2]; inhibitor 3 μM): 5.99 ± 1.16 pmol/mg protein
Uptake (Average ± SD), OAT1 ([2]; inhibitor 10 μM): 3.70 ± 0.44 pmol/mg protein
Uptake (Average ± SD), OAT1 ([2]; inhibitor 30 μM): 3.25 ± 0.39 pmol/mg protein
Uptake (Average ± SD), OAT1 ([2]; inhibitor 100 μM): 1.79 ± 0.25 pmol/mg protein
Uptake (Average ± SD), OAT1 ([2]; inhibitor 300 μM): 1.47 ± 0.12 pmol/mg protein
Uptake (Average ± SD), OAT1 ([2]; inhibitor 1000 μM): 0.669 ± 0.099 pmol/mg protein
Uptake (Average ± SD), Control ([2]; inhibitor 1 μM): 0.0857 pmol/mg protein
Uptake (Average ± SD), Control ([2]; inhibitor 3 μM): 0.107 ± 0.040 pmol/mg protein
Uptake (Average ± SD), Control ([2]; inhibitor 10 μM): 0.0571 ± 0.0257 pmol/mg protein
Uptake (Average ± SD), Control ([2]; inhibitor 30 μM): 0.612 ± 0.907 pmol/mg protein
Uptake (Average ± SD), Control ([2]; inhibitor 100 μM): 0.150 ± 0.026 pmol/mg protein
Uptake (Average ± SD), Control ([2]; inhibitor 300 μM): 0.0452 ± 0.0082 pmol/mg protein
Uptake (Average ± SD), Control ([2]; inhibitor 1000 μM): 0.119 ± 0.022 pmol/mg protein
IC50 parameters: Max ([2]; fit of OAT1 inhibition curve): Max: 115%
IC50 parameters: Min ([2]; fit of OAT1 inhibition curve): Min: 0%
Background corrected uptake rate ([2]; inhibitor 1 μM): 6.90 pmol/mg/min
% control ([2]; inhibitor 1 μM): 112%
Background corrected uptake rate ([2]; inhibitor 3 μM): 5.88 pmol/mg/min
% control ([2]; inhibitor 3 μM): 95.6%
Background corrected uptake rate ([2]; inhibitor 10 μM): 3.64 pmol/mg/min
% control ([2]; inhibitor 10 μM): 59.2%
Background corrected uptake rate ([2]; inhibitor 30 μM): 2.64 pmol/mg/min
% control ([2]; inhibitor 30 μM): 42.9%
Background corrected uptake rate ([2]; inhibitor 100 μM): 1.64 pmol/mg/min
% control ([2]; inhibitor 100 μM): 26.7%
Background corrected uptake rate ([2]; inhibitor 300 μM): 1.42 pmol/mg/min
% control ([2]; inhibitor 300 μM): 23.1%
Background corrected uptake rate ([2]; inhibitor 1000 μM): 0.550 pmol/mg/min
% control ([2]; inhibitor 1000 μM): 8.9%

CO[C@@H]1[C@@H](OC(N)=O)[C@@H](O)[C@H](Oc2ccc3c(O)c(NC(=O)c4ccc(O)c(CC=C(C)C)c4)c(=O)oc3c2C)OC1(C)C [Novobiocin]
Uptake (Average ± SD), OAT1 ([2]; inhibitor 300 μM): 0.425 ± 0.071 pmol/mg protein
Uptake (Average ± SD), Control ([2]; inhibitor 300 μM): 0.231 ± 0.048 pmol/mg protein
Background corrected uptake rate ([2]; inhibitor 300 μM): 0.194 pmol/mg/min
% control ([2]; inhibitor 300 μM): 3.2%

Reference: patent US20260083692A1 (Strongbridge Dublin Limited, priority 2018, published 2026)
